The nature of data set [1]: half-life in a human patient. The conditions noted are these: in vivo, also the choline salt (VIa).
The next data set deals with progesterone. The data set is described as follows: circulating progesterone concentration, same clinical trial. The conditions noted are these: both cohorts (Concurrent-ABT and Delayed-ABT), exception of a single outlier subject, FIG. 3B. In kind it is in vivo, human. The protocol: The experiments described in this example were conducted as part of a single-center, open-label, randomized, parallel-group clinical trial in 32 pre-menopausal women. Following screening assessments, and during the second half of the menstrual cycle, women received norethindrone (5 mg, three-times daily for 10 days) to synchronize menstrual cycles. […]
The main treatment outcomes and endpoints measured during these experiments included (i) a qualitative assessment of uterine blood loss, which was recorded on a daily basis throughout the study by characterizing each subject's bleeding pattern using one of the following four categories: “no bleeding,” “spotting” (light staining, dark blood, no sanitary protection needed or only panty liner), “bleeding” (1-4 completely soiled maxi sanitary towels or 1-8 soiled tampons or equivalent combination of the two), or “heavy bleeding” (>4 completely soiled maxi sanitary towels or >8 soiled tampons or equivalent combination of the two); (ii) a bi-weekly assessment of each subject's circulating E2 concentration; (iii) a bi-weekly assessment of each subject's circulating progesterone concentration (measured using a validated commercial chemiluminescence immunoassay method (Elecsys Progesterone III, Roche, Burgess Hill, UK)); (iv) the pharmacokinetic profile of compound (VI) and the add-back therapy; and (v) adverse events.

The target of a further data set is T1, human GnRH receptor (Homo sapiens, UniProt P30968).
T1 sequence (P30968 1-328): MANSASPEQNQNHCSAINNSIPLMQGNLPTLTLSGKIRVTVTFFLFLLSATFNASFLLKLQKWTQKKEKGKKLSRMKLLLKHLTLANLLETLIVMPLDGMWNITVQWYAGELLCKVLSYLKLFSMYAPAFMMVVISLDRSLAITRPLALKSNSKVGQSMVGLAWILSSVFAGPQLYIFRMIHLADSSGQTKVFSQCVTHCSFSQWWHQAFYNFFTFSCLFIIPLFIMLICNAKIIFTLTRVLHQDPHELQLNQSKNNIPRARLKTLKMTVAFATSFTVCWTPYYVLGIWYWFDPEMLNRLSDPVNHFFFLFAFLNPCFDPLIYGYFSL
Briefly: affinity for human GnRH receptor. The note with it: kind of constant not given; also for salts such as the choline salt. In kind it is binding.

A word on the half-life: it is how long it takes for the measured level to halve. The Ki is a dissociation constant, usually derived from enzyme kinetics or from competition with a known ligand. As for `COc1cc(F)c(-n2c(=O)[nH]c3csc(C(=O)O)c3c2=O)cc1OCc1c(OC)ccc(F)c1F` [Compound (VI), 3-[2-fluoro-5-(2,3-difluoro-6-methoxybenzyloxy)4-methoxyphenyl]-2,4-dioxo-1,2,3,4-tetrahydrothieno [3,4d]pyrimidine-5-carboxylic acid], the half-life in data set [1] is 14 to 15 h. Further, the circulating progesterone entry with progesterone was “sustained reduction in circulating progesterone”. Further, on human GnRH receptor, the Ki is 27.4 nM.
